Reference: BindingDB's records for patent US12479887 (Purdue Research Foundation, 2025)

Biological target: T1, N-terminal Xaa-Pro-Lys N-methyltransferase 1 (Homo sapiens, UniProt Q9BV86)
T1 sequence (Q9BV86 whole entry): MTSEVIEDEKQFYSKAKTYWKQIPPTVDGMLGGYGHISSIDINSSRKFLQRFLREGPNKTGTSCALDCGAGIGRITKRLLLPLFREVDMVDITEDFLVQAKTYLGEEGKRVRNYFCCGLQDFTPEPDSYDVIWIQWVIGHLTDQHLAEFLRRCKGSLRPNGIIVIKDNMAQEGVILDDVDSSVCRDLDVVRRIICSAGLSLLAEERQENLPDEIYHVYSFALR
Assay: Not found

IC50: 95 nM
Compound: N=C(N)NCCC[C@H](NC(=O)[C@H](CCCCN)N1CCC[C@H]1C(N)=O)C(=O)N[C@@H](Cc1c[nH]c2ccccc12)C(N)=O [US12479887, Compound 43]
